Measurements published in patent publication US4581354A, “3-arylcarbonyl- and 3-cycloalkylcarbonyl-1-aminoalkyl-1H-indoles, compositions and use” (Sterling Drug Inc., priority 1985, dated 1986).
Like-named read-outs stand apart in the source and are kept apart here.

System: acetylcholine-induced abdominal constriction
Assay: animal or person
Format: in vivo, mice
Details: for ED50: read-out: Ach ED50; for inhibition in vivo at 300 mg/kg: 300 mg./kg. oral; for inhibition in vivo at 3 mg/kg: 3 mg./kg. i.v.; for inhibition in vivo at 10 mg/kg: 10 mg./kg. i.v.; for inhibition in vivo at 550 mg/kg: 550 mg./kg. oral; for inhibition in vivo at 150 mg/kg: 150 mg./kg. oral
Source text: The test procedures used to determine the analgesic activities of the compounds have been described in detail in the prior art and are as follows: The acetylcholine-induced abdominal constriction test, which is a primary analgesic screening test designed to measure the ability of a test agent to suppress acetylcholine-induced abdominal constriction in mice, described by Collier et al., Brit. J. Pharmacol. Chemotherap. 32, 295 (1968); a modification of the anti-bradykinin test, which is also a primary analgesic screening procedure, described by Berkowitz et al., J. Pharmacol. Exptl. Therap. 177, 500-508 (1971), Blane et al., J. Pharm. Pharmacol. 19, 367-373 (1967), Botha et al., Eur. J. Pharmacol. 6, 312-321 (1969) and Deffenu et al., J. Pharm. Pharmacol. 18, 135 (1966); and the rat paw flexion test, described by Kuzuna et al., Chem. Pharm. Bull., 23, 1184-1191 (1975), Winter et al., J. Pharm. Exptl. Therap., 211, 678-685 (1979) and Capetola et al., J. Pharm. Exptl. Therap. 214, 16-23 (1980).
Unless noted otherwise, all data were obtained on oral administration and are expressed either as the ED50 or as the percent inhibition at a given dose level (thus 30/100 or 30% inhibition at […].)
In some instances, the compounds were retested two or more times, and ED50 values were calculated for each series of repeat tests. In such instances, each of the ED50 values so-obtained is given in a series of values, thus 6, 28, 30, 43 in the case of the species of Example 1AW in the acetylcholine-induced abdominal constriction test.

[1] = Mus musculus, po, 100 mg./kg. oral, read-out: Ach percent inhibition
[2] = Mus musculus, po, read-out: Ach percent inhibition
[3] = Mus musculus, iv, read-out: Ach percent inhibition
[4] = Mus musculus, iv, 30 mg./kg. i.v., read-out: Ach percent inhibition
[5] = Mus musculus, sc, 30 mg./kg. s.c., read-out: Ach percent inhibition
[6] = Mus musculus, po, 30 mg./kg. oral, read-out: Ach percent inhibition

Compound	ED50 (Mus musculus, po)	inhibition in vivo at 100 mg/kg [1]	further results
5-bromo-2-methyl-3-(4-methylbenzoyl)-1-[2-(4-morpholinyl)ethyl]-1H-indole [Example 33]	–	–	Ach percent inhibition (100 mg./kg. oral): 20%
COc1ccc(C(=O)c2c(C)n(CCN3CCOCC3)c3cc(Cl)ccc23)cc1 [Example 1-O]	91.6 mg/kg	–	–
Cc1c(C(=O)c2ccc(C#N)cc2)c2ccccc2n1CCCN1CCOCC1 [Example 1AA]	–	10%	–
Cc1cccc2c1c(C(=O)c1ccccc1)c(C)n2CCN1CCOCC1 [Example 1AB]	–	–	inhibition in vivo at 300 mg/kg [2]: 47%
Cc1c(C(=O)c2ccc(C#N)cc2)c2ccccc2n1CCN1CCOCC1 [Example 1AF, 2-methyl-3-(4-cyanobenzoyl)-1-[2-(4-morpholinyl)ethyl]-1H-indole]	200 mg/kg	–	inhibition in vivo at 3 mg/kg [3]: 0%; inhibition in vivo at 10 mg/kg [3]: 0%; inhibition in vivo at 30 mg/kg [4]: 30%
Cc1c(C(=O)c2ccc(OCc3ccccc3)cc2)c2ccccc2n1CCN1CCOCC1 [Example 1AG, 2-methyl-3-(4-benzyloxybenzoyl)-1-[2-(4-morpholinyl)ethyl]-1H-indole]	–	40%	inhibition in vivo at 10 mg/kg [3]: 10%; inhibition in vivo at 30 mg/kg [4]: 56%; inhibition in vivo at 300 mg/kg [2]: 47%; inhibition in vivo at 30 mg/kg [5]: 20%
COc1cccc(C(=O)c2c(C)n(CCN3CCOCC3)c3ccccc23)c1 [Example 1AH]	85 mg/kg	–	–
COc1ccc(C(=O)c2c(C)n(CCN3CCOCC3)c3ccccc23)cc1OC [Example 1AI]	74 mg/kg	–	–
COc1ccc(C(=O)c2c(-c3ccccc3)n(CCN3CCOCC3)c3ccccc23)cc1 [Example 1AJ]	–	13%	inhibition in vivo at 300 mg/kg [2]: 53%
COc1ccc2c(c1)c(C(=O)c1ccccc1)cn2CCN1CCOCC1 [Example 1AK]	–	–	inhibition in vivo at 300 mg/kg [2]: 40%; inhibition in vivo at 550 mg/kg [2]: 47%
COc1ccc2c(c1)c(C(=O)c1ccccc1)c(C)n2CCN1CCOCC1 [Example 1AL]	113 mg/kg	–	–
COc1ccc(C(=O)c2c(C)n(CCN3CCOCC3)c3cc(OC)ccc23)cc1 [Example 1AM]	32 mg/kg	–	ED50 (Mus musculus, iv): 5 mg/kg
O=C(c1ccc(Cl)cc1)c1cn(CCN2CCOCC2)c2ccccc12 [Example 1AR]	–	–	inhibition in vivo at 150 mg/kg [2]: 27%; inhibition in vivo at 300 mg/kg [2]: 27%; inhibition in vivo at 25 mg/kg (Mus musculus, sc, 25 mg./kg. s.c., read-out: Ach percent inhibition): 13%
Cc1c(C(=O)c2ccc(Cl)c(Cl)c2)c2ccccc2n1CCN1CCOCC1 [Example 1AS]	–	–	inhibition in vivo at 300 mg/kg [2]: 33%
CC(Cn1cc(C(=O)c2ccccc2)c2ccccc21)N1CCOCC1 (centres unmarked) [Example 1AZ]	–	73%	inhibition in vivo at 75 mg/kg (Mus musculus, po, 75 mg./kg. oral, read-out: Ach percent inhibition): 20%; inhibition in vivo at 150 mg/kg [2]: 53%
Cc1cccc2c(C(=O)c3ccccc3)cn(CCN3CCOCC3)c12 [Example 1BA]	197 mg/kg	–	–
Cc1c(C(=O)c2cccc3ccccc23)c2ccccc2n1CCN1CCOCC1 [Example 1BB]	97 mg/kg	–	–
Cc1c(C(=O)c2ccc(C#N)cc2)c2ccccc2n1CCN1CCCC1 [Example 1BC]	–	40%	–
CCN(CC)CCn1c(C)c(C(=O)c2ccc(OC)cc2)c2ccccc21 [Example 1BD]	65 mg/kg	–	–
CCN(CC)CCn1c(C)c(C(=O)c2ccc(OC)cc2)c2ccccc21 [Example 1BE]	–	–	Ach ED50 (oral): 50.9 mg/kg
COc1ccc(C(=O)c2c(C)n(CCN3CCOCC3)c3ccccc23)cc1 [Example 1BF]	–	–	inhibition in vivo at 30 mg/kg [6]: 0%
CCCOc1ccc(C(=O)c2c(C)n(CCN3CCOCC3)c3ccccc23)cc1 [Example 1BG]	–	–	inhibition in vivo at 300 mg/kg [2]: 33%
CCOc1ccc(C(=O)c2c(C)n(CCN3CCOCC3)c3ccccc23)cc1 [Example 1BH]	–	27%	inhibition in vivo at 10 mg/kg [3]: 50%; inhibition in vivo at 30 mg/kg [6]: 0%; inhibition in vivo at 300 mg/kg [2]: 53%; inhibition in vivo at 550 mg/kg [2]: 58%; inhibition in vivo at 30 mg/kg [5]: 7%
COc1ccc2cc(C(=O)c3c(C)n(CCN4CCOCC4)c4ccccc34)ccc2c1 [Example 1BJ]	–	0%	–
Cc1c(C(=O)c2ccc(C#N)cc2)c2cc(F)ccc2n1CCCN1CCOCC1 [Example 1BL]	–	0%	–
COc1ccc(C(=O)c2cn(CCCN3CCOCC3)c3ccc(F)cc23)cc1 [Example 1BM]	–	0%	–
COc1ccc(C(=O)c2c(C)n(CCCN3CCCCC3)c3ccc(F)cc23)cc1 [Example 1BN]	36 mg/kg	–	–

Compound	ED50 (Mus musculus, po)	inhibition in vivo at 100 mg/kg [1]	further results
Cc1c(C(=O)c2ccccc2)c2cc(F)ccc2n1CCCN1CCOCC1 [Example 1BO]	173 mg/kg	–	–
CCN(CC)CCCn1c(C)c(C(=O)c2ccc(OC)cc2)c2cc(F)ccc21 [Example 1BP]	28 mg/kg	–	–
COc1ccc(C(=O)c2c(C)n(CCCN3CCOCC3)c3c(F)cc(F)cc23)cc1 [Example 1BR]	123 mg/kg	–	–
COc1ccc(C(=O)c2c(C)n(C(C)CCN3CCOCC3)c3ccc(F)cc23)cc1 (centres unmarked) [Example 1BT]	–	90%	–
Cc1c(C(=O)c2ccccc2F)c2cc(F)ccc2n1C(C)CCN1CCOCC1 (centres unmarked) [Example 1BW]	–	10%	–
Cc1c(C(=O)c2ccc(-c3ccccc3)cc2)c2ccccc2n1CCN1CCOCC1 [Example 1BZ]	–	0%	–
Cc1c(C(=O)c2cccc3c2OCO3)c2ccccc2n1CCN1CCOCC1 [Example 1CA]	–	20%	–
Cc1c(C(=O)c2ccccc2-c2ccccc2)c2ccccc2n1CCN1CCOCC1 [Example 1CB]	–	60%	–
Cc1c(C(=O)c2ccc(C#N)cc2)c2cc(F)ccc2n1CCN1CCOCC1 [Example 1CC]	–	10%	–
Cc1c(C(=O)c2ccccc2F)c2ccccc2n1C(C)CCN1CCOCC1 (centres unmarked) [Example 1CD]	79 mg/kg	–	–
CCN(CC)CCn1c(C)c(C(=O)c2ccc3ccccc3c2)c2ccccc21 [Example 1CE]	–	0%	–
COc1ccc(C(=O)c2c(C)n(CCCN3CCCC3)c3ccccc23)cc1 [Example 1CF]	24 mg/kg	–	–
COc1ccc(C(=O)c2c(C)n(CCCN3CCCC3)c3ccccc23)cc1 [Example 1CG]	–	–	Ach ED50 (oral): 46.3 mg/kg
CN(C)CCn1cc(C(=O)c2ccccc2)c2ccccc21 [Example 1CH]	105 mg/kg	–	–
COc1ccc(C(=O)c2c(C)n(CCCCCN3CCOCC3)c3ccc(F)cc23)cc1 [Example 1CI]	–	70%	–
COc1ccc(C(=O)c2c(C)n(CCCCN3CCOCC3)c3ccc(F)cc23)cc1 [Example 1CJ]	56 mg/kg	–	–
Cc1c(C(=O)c2cccc(F)c2F)c2ccccc2n1CCN1CCOCC1 [Example 1CK]	–	30%	–
Cc1cccc(C)c1C(=O)c1c(C)n(CCN2CCOCC2)c2ccccc12 [Example 1CL]	–	30%	–
Cc1c(C(=O)c2ccco2)c2ccccc2n1CCN1CCOCC1 [Example 1C]	126 mg/kg	–	–
COc1ccc(C(=O)c2c(C)n(CCN3CCOCC3)c3c(C)cccc23)cc1 [Example 1E]	–	0%	–
COc1ccc(C(=O)c2c(C)n(CCN3CCOCC3)c3ccc(F)cc23)cc1 [Example 1G]	84 mg/kg	–	inhibition in vivo at 3 mg/kg [3]: 0%; inhibition in vivo at 10 mg/kg [3]: 50%; inhibition in vivo at 30 mg/kg [4]: 100%
COc1ccc(C(=O)c2c(C)n(CCN3CCOCC3)c3ccccc23)cc1 [Example 1H]	–	33%	inhibition in vivo at 3 mg/kg [3]: 0%; inhibition in vivo at 10 mg/kg [3]: 30%; inhibition in vivo at 30 mg/kg [4]: 100%; inhibition in vivo at 300 mg/kg [2]: 71%; inhibition in vivo at 30 mg/kg [5]: 2%
COc1ccc(C(=O)c2c(C)n(CCCN3CCOCC3)c3ccc(F)cc23)cc1.Cl [Example 1I, 5-fluoro-2-methyl-3-(4-methoxybenzoyl)-1-[3-(4-morpholinyl)propyl]-1H-indole hydrochloride]	75 mg/kg	–	ED50 (Mus musculus, iv): 8.5 mg/kg
COc1ccc(C(=O)c2c(C)n(CCN3CCOCC3)c3ccccc23)cc1 [Example 1J]	–	–	Ach ED50 (i.v.): 6.7 mg/kg; Ach ED50 (oral): 86 mg/kg
COc1ccc(C(=O)c2c(C)n(CCN3CCCC3)c3ccccc23)cc1 [Example 1K]	255 mg/kg	–	inhibition in vivo at 3 mg/kg [3]: 30%; inhibition in vivo at 5.5 mg/kg (Mus musculus, iv, 5.5 mg./kg. i.v., read-out: Ach percent inhibition): 25%; inhibition in vivo at 10 mg/kg [3]: 44%
COc1ccc(C(=O)c2c(C)n(CCN3CCOCC3)c3c(F)cccc23)cc1 [Example 1M]	–	50%	–
COc1ccc(C(=O)c2c(C)n(CCN3CCOCC3)c3c(OC)cccc23)cc1 [Example 1N]	35.8 mg/kg	–	–
